Assay results as given in PubChem BioAssay AID248 (DTP/NCI, 2004).
“And” between values parts separate entries of the source, which are not always exact repeats. Equal entries are not always repeated. Toxic doses and inconclusive results are not listed. Rule as the data show it: active = T/C of 150% or more; inactive = T/C below 125%. Square brackets hold non-standard residues; d marks the D form. Peptide text beside a SMILES is read from it. * marks the point of attachment. ξ: configuration not given here. Cbz = O=C(OCc1ccccc1)*; ξS = NC(CO)C(=O)O

System: L1210 leukemia ip in BDF1 mice, survival T/C
Assay: NCI In Vivo Anticancer Drug Screen. Data for tumor model L1210 Leukemia (intraperitoneal) in B6D2F1 (BDF1) mice
Conditions: endpoint: mean survival time, higher = longer survival
Procedure, shortened: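 In this screen, tumor-bearing mice given compound are compared to those given vehicle, and their survival values are reported as a treated-to-control quotient.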

[1] = dose: 100.0 mg/kg/injection, schedule: Q01DX001 (ip), vehicle: carboxymethylcellulose (CMC)
[2] = dose: 25.0 mg/kg/injection, schedule: Q01DX009 (ip), vehicle: saline with Tween-80
[3] = dose: 100.0 mg/kg/injection, schedule: Q01DX009 (ip), vehicle: Klucel (hydroxypropylcellulose) (HPC)
[4] = dose: 200.0 mg/kg/injection, schedule: Q01DX009 (ip), vehicle: Klucel (hydroxypropylcellulose) (HPC)
[5] = dose: 400.0 mg/kg/injection, schedule: Q01DX009 (ip), vehicle: Klucel (hydroxypropylcellulose) (HPC)
[6] = dose: 100.0 mg/kg/injection, schedule: Q04DX003 (ip), vehicle: saline with Tween-80
[7] = dose: 200.0 mg/kg/injection, schedule: Q04DX003 (ip), vehicle: saline with Tween-80
[8] = dose: 400.0 mg/kg/injection, schedule: Q04DX003 (ip), vehicle: saline with Tween-80
[9] = dose: 200.0 mg/kg/injection, schedule: Q04DX002 (ip), vehicle: saline with Tween-80
[10] = dose: 400.0 mg/kg/injection, schedule: Q04DX002 (ip), vehicle: saline with Tween-80

Measured: T/C

C/C=C1/C[C@@H](C)[C@@](C)(O)C(=O)OCC2=CCN3CC[C@@H](OC1=O)[C@@H]23
inactive: dose: 10.0 mg/kg/injection, schedule: Q01DX015 (ip), vehicle: carboxymethylcellulose (CMC) 93 % of control | dose: 20.0 mg/kg/injection, schedule: Q01DX015 (ip), vehicle: carboxymethylcellulose (CMC) 96 % of control | dose: 30.0 mg/kg/injection, schedule: Q01DX015 (ip), vehicle: carboxymethylcellulose (CMC) 98 % of control | [1] 105 % of control

c1ccc(C[n+]2ccc3ccccc3c2)cc1
inactive: dose: 6.25 mg/kg/injection, schedule: Q01DX009 (ip), vehicle: saline with Tween-80 95 % of control | dose: 6.25 mg/kg/injection, schedule: Q04DX003 (ip), vehicle: saline with Tween-80 107 % of control | dose: 10.0 mg/kg/injection, schedule: Q04DX003 (ip), vehicle: saline 105 % of control | dose: 12.5 mg/kg/injection, schedule: Q01DX009 (ip), vehicle: saline with Tween-80 103 % of control | dose: 12.5 mg/kg/injection, schedule: Q01DX009 (ip), vehicle: saline 112 % of control | dose: 12.5 mg/kg/injection, schedule: Q04DX003 (ip), vehicle: saline with Tween-80 98 % of control | dose: 20.0 mg/kg/injection, schedule: Q04DX003 (ip), vehicle: saline 92 % of control | [2] 111 % of control | dose: 25.0 mg/kg/injection, schedule: Q01DX009 (ip), vehicle: saline 107 % of control | dose: 25.0 mg/kg/injection, schedule: Q04DX003 (ip), vehicle: saline with Tween-80 91 % of control | dose: 40.0 mg/kg/injection, schedule: Q04DX003 (ip), vehicle: saline 94 % of control | dose: 50.0 mg/kg/injection, schedule: Q01DX009 (ip), vehicle: saline 104 % of control | dose: 50.0 mg/kg/injection, schedule: Q04DX003 (ip), vehicle: saline 95 % of control

NC(=O)c1cc(Cl)ccc1OC(=O)Nc1ccccc1F
inactive: [3] 115 % of control | [4] 102 % of control | [5] 98 % of control

COC(=O)C(CO)NC(=O)CNC(=O)OCc1ccccc1 (stereo not drawn) (Cbz-Gly-[ξS]-OMe)
inactive: dose: 100.0 mg/kg/injection, schedule: Q04DX003 (ip), vehicle: water 98 % of control | dose: 200.0 mg/kg/injection, schedule: Q04DX003 (ip), vehicle: water 94 % of control | dose: 400.0 mg/kg/injection, schedule: Q04DX003 (ip), vehicle: water 96 % of control

FN1C(F)(F)C(F)(F)C(F)(F)C(F)(F)C1(F)F
inactive: dose: 100.0 mg/kg/injection, schedule: Q01DX001 (ip), vehicle: acetone 100 % of control | dose: 200.0 mg/kg/injection, schedule: Q01DX001 (ip), vehicle: acetone 87 % of control | dose: 400.0 mg/kg/injection, schedule: Q01DX001 (ip), vehicle: acetone 92 % of control

CCOC(=O)/C=C1/Nc2cc(Cl)c(Cl)cc2NC1=O
inactive: [6] 97 % of control | [7] 95 % of control | [8] 89 % of control

[Co+3].[NH-]CC(=O)O.[NH-]CC(=O)O.[NH-]CC(=O)O
inactive: [9] 122 % of control | [10] 115 % of control

CN(C)C(=O)Sc1cc(Cl)c(Cl)cc1Cl
inactive: dose: 87.0 mg/kg/injection, schedule: Q01DX001 (ip), vehicle: Klucel (hydroxypropylcellulose) (HPC) 92 % of control | dose: 175.0 mg/kg/injection, schedule: Q01DX001 (ip), vehicle: Klucel (hydroxypropylcellulose) (HPC) 92 % of control | dose: 350.0 mg/kg/injection, schedule: Q01DX001 (ip), vehicle: Klucel (hydroxypropylcellulose) (HPC) 94 % of control

O=C1OC(c2ccccc2)=N/C1=C\c1ccc([N+](=O)[O-])cc1
inactive: dose: 100.0 mg/kg/injection, schedule: Q04DX002 (ip), vehicle: Klucel (hydroxypropylcellulose) (HPC) 92 % of control | dose: 200.0 mg/kg/injection, schedule: Q04DX002 (ip), vehicle: Klucel (hydroxypropylcellulose) (HPC) 89 % of control | dose: 400.0 mg/kg/injection, schedule: Q04DX002 (ip), vehicle: Klucel (hydroxypropylcellulose) (HPC) 86 % of control

C[n+]1cccc(C(=O)O)c1
inactive: dose: 50.0 mg/kg/injection, schedule: Q01DX001 (ip), vehicle: carboxymethylcellulose (CMC) 95 % of control | [1] 95 % of control | dose: 200.0 mg/kg/injection, schedule: Q01DX001 (ip), vehicle: carboxymethylcellulose (CMC) 98 % of control

COC(=O)[C@@]12OC[C@]34[C@H]([C@@H](O)[C@@H]1O)[C@@]1(C)[C@H](O)C(=O)C=C(C)[C@@H]1C[C@H]3OC(=O)C(OC(C)=O)[C@@H]24 (some centres not stated)
inactive: dose: 125.0 micrograms/kg/injection, schedule: Q01DX009 (ip), vehicle: saline + alcohol 104 % of control | dose: 250.0 micrograms/kg/injection, schedule: Q01DX009 (ip), vehicle: saline + alcohol 105 % of control | dose: 500.0 micrograms/kg/injection, schedule: Q01DX009 (ip), vehicle: saline + alcohol 96 % of control | dose: 1000.0 micrograms/kg/injection, schedule: Q01DX009 (ip), vehicle: saline + alcohol 102 % of control | dose: 2000.0 micrograms/kg/injection, schedule: Q01DX009 (ip), vehicle: saline + alcohol 104 % of control

COc1ccc(OC)c(CC=O)c1
inactive: dose: 100.0 mg/kg/injection, schedule: Q04DX003 (ip), vehicle: alcohol 97 % of control | dose: 200.0 mg/kg/injection, schedule: Q04DX003 (ip), vehicle: alcohol 101 % of control | dose: 400.0 mg/kg/injection, schedule: Q04DX003 (ip), vehicle: alcohol 103 % of control

COc1cc(/C=N/NC(=O)CCCCCCCCC(=O)N/N=C/c2ccc(O)c(OC)c2)ccc1O
inactive: dose: 50.0 mg/kg/injection, schedule: Q01DX009 (ip), vehicle: saline with Tween-80 95 % of control and 97 % of control | dose: 100.0 mg/kg/injection, schedule: Q01DX001 (ip), vehicle: saline with Tween-80 92 % of control | dose: 100.0 mg/kg/injection, schedule: Q01DX009 (ip), vehicle: saline with Tween-80 93 % of control and 91 % of control | dose: 100.0 mg/kg/injection, schedule: Q04DX002 (ip), vehicle: saline with Tween-80 101 % of control | [6] 87 % of control | dose: 200.0 mg/kg/injection, schedule: Q01DX001 (ip), vehicle: saline with Tween-80 95 % of control | dose: 200.0 mg/kg/injection, schedule: Q01DX009 (ip), vehicle: saline with Tween-80 94 % of control and 100 % of control | [9] 93 % of control and 103 % of control | [7] 97 % of control | dose: 400.0 mg/kg/injection, schedule: Q01DX001 (ip), vehicle: saline with Tween-80 92 % of control | [10] 90 % of control | [8] 101 % of control

CCc1ccc(N2C(N)=NC(N)=NC2(C)C)cc1
inactive: dose: 25.0 mg/kg/injection, schedule: Q01DX001 (ip), vehicle: saline 104 % of control | dose: 50.0 mg/kg/injection, schedule: Q01DX001 (ip), vehicle: saline 100 % of control | dose: 100.0 mg/kg/injection, schedule: Q01DX001 (ip), vehicle: saline 105 % of control and 110 % of control

O=C(Nc1cccc(C(F)(F)F)c1)N(Cc1ccccc1)c1ccccc1
inactive: [3] 109 % of control | [4] 95 % of control | [5] 96 % of control

O=C(O)c1cc(I)ccc1I
inactive: [3] 93 % of control | [4] 104 % of control | [5] 103 % of control

CCc1c(Nc2ccc(Cl)c(Cl)c2)nc(N)[nH]c1=O
inactive: dose: 100.0 mg/kg/injection, schedule: Q01DX Z (ip), vehicle: methylcellulose (MC) 99 % of control | dose: 200.0 mg/kg/injection, schedule: Q01DX Z (ip), vehicle: methylcellulose (MC) 100 % of control

CC(C)(O)C(=O)N/N=C/c1ccc(Cl)cc1Cl
inactive: [2] 102 % of control
